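Each compound was tested at five concentrations against cells in 96-well plates for 48 hours. At the GI50, growth is halved. TGI: concentration producing complete growth inhibition.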 Where only a bound is given, the exact number is not on record here.

What all share (test): NCI-60 cell line screen, 48 h
The test system of experiment [1] is A549 NSCLC.
For experiment [2], the system named is COLO 205 colon.
The subject of experiment [3] is HOP-62 NSCLC.
In experiment [4] the test system is SF-539 CNS.
For experiment [5], the system named is SK-MEL-2 melanoma.
The subject of experiment [6] is SNB-75 CNS.
In experiment [7] the test system is DU-145 prostate.
Experiment [8] concerns MDA-MB-231 breast.
Experiment [9] has as its system HS 578T breast.
Experiment [10] relates to PC-3 prostate.

As to `CC1=CC(N2C(=O)C(C)=CC2O)NC1=O` (stereo not drawn), the TGI in experiment [1], in experiment [2], in experiment [3], in experiment [4], in experiment [5] and in experiment [6] was greater than 100 µM throughout.

In the case of `N/N=c1\c2ccccc2c2cc3c(cc12)/c(=N/N)c1ccccc13`, the TGI in experiment [1], in [2], in experiment [3], in [4], in experiment [5] and in experiment [6] was greater than 100 µM in each case.

Consider `Cc1ccc(NC(=O)/C(Cl)=C(/Cl)C(=O)O)cc1`, for which the TGI was greater than 100 µM in experiment [1]; 20.3 µM in [2]; greater than 100 µM in [3]; 37.6 µM in experiment [5]; 34.1 µM in experiment [6].

Regarding `COC1=CC(c2ccc[nH]2)=N/C1=C\c1[nH]c(C)c(C(=O)CCCCC(=O)Oc2ccc3c(c2)CCC2C3CC[C@]3(C)[C@@H](O)CC[C@@H]23)c1C` (stereo partly drawn), the GI50 in experiment [1] is 6.58 µM; in [2], greater than 100 µM; in experiment [7] it was 9.57 µM; in [3], 17.3 µM; in [8] it was 2 µM; in experiment [5], 9.88 µM. In addition, the GI50 in [6] is 12.7 µM. Further, the TGI in experiment [1] is greater than 100 µM; in [2], greater than 100 µM; in experiment [7], greater than 100 µM; in [3], greater than 100 µM; in experiment [8], 8.04 µM; in experiment [5], greater than 100 µM. In experiment [6], this compound yielded a TGI greater than 100 µM.

With `Cc1ccccc1-n1c2nc(=O)n(C)c(=O)c-2nc2ccccc21`, the TGI in [1] is 35.4 µM; in experiment [2] it was 13.9 µM; in [3], greater than 100 µM; in [4], 29.2 µM; in experiment [5], 32.5 µM; in [6] it was 39.9 µM.

Regarding `NCCNCc1c2ccccc2c(CNCCN)c2ccccc12`, the TGI in experiment [1] was 38.7 µM; in experiment [2], greater than 100 µM; in [3], 69.3 µM; in experiment [4], 29.5 µM; in experiment [5], 29.1 µM.

With `COc1ccc2nc3cc(Cl)ccc3c(Sc3ccc([N+](=O)[O-])cc3)c2c1`, the GI50 in [1] is greater than 100 µM; in experiment [2], greater than 100 µM; in experiment [3], greater than 100 µM; in [5] it was greater than 100 µM; in [6] it was greater than 10 µM. Also, the TGI in experiment [1] was greater than 100 µM; in [2], greater than 100 µM; in experiment [3] it was greater than 100 µM; in experiment [4], greater than 10 µM; in experiment [5], greater than 100 µM; in experiment [6], greater than 100 µM.

In the case of `CC(=O)NC1C(OCc2ccccc2)OC(COC(=O)CCCCCCCCCCNc2ccc([N+](=O)[O-])c3[nH]c4ccccc4c(=O)c23)C(O)C1OC(C)C(=O)NC(C)C(=O)NC(CCC(N)=O)C(=O)OCc1ccccc1` (stereo not drawn), the TGI in [1], in experiment [2], in [3], in [4], in experiment [5] and in experiment [6] was greater than 100 µM in each case.

Turning to `COC(=O)C1=C(C(=O)OC)C2(C)Nc3ccccc3C2=C(c2ccccc2)C1` (stereo not drawn), the TGI in experiment [1] was 46.7 µM; in experiment [2], 34 µM; in experiment [3] it was 50.1 µM; in experiment [4] it was 37.5 µM; in experiment [5], 39 µM.

With `c1ccc2c(c1)N=C(c1cccc3ccccc13)CC(c1ccc3c(c1)OCO3)S2` (stereo not drawn), the TGI in experiment [1], in [2], in experiment [3], in experiment [4], in experiment [5] and in experiment [6] was greater than 100 µM throughout.

Consider `CC(C)NC(=O)CCN(C(=O)O)S(=O)(=O)c1ccc(NC(=O)c2ccccc2)cc1`, for which the TGI in experiment [1] is greater than 71.2 µM; in experiment [2], greater than 58.5 µM; in [3] it was greater than 100 µM; in experiment [4] it was 67.5 µM; in [5], greater than 100 µM; in experiment [6], greater than 100 µM.

`CN1CCN(C)C12C=CC=CC21CC1`: the TGI in [1], in experiment [2], in experiment [3], in [4], in experiment [5] and in [6] was greater than 100 µM throughout.

Turning to `CCNC(=O)O/N=C1\CCC2[C@@H]3CC=C4C[C@@H](OC5CCCCO5)CC[C@]4(C)C3CC[C@]12C` (stereo partly drawn), the TGI in experiment [1] was 64.2 µM; in experiment [3], greater than 100 µM; in experiment [4], greater than 100 µM; in [5], 5.68 µM.

Take `COc1ccccc1NC(=O)c1nc2ccc([N+](=O)[O-])cc2nc1C`: the TGI in experiment [1], in [2], in [3], in [4], in experiment [5] and in experiment [6] was greater than 100 µM throughout.

Turning to `Cc1ccc(S(=O)OCC23CC4CC(CC(C4)C2)C3)cc1` (stereo not drawn), the TGI in experiment [1], in experiment [2], in experiment [3], in experiment [4] and in experiment [6] was greater than 100 µM in each case.

`OCc1c[te]c(-c2ccccc2)c1`: the TGI was greater than 100 µM in experiment [1]; greater than 100 µM in experiment [3]; 78.3 µM in experiment [4]; 85.5 µM in experiment [5]; greater than 100 µM in [6].

For `CC#CC1C2CCCC1(CSc1ccccc1)NC(=O)O2` (stereo not drawn), the TGI in experiment [1], in [2], in [3], in experiment [4], in [5] and in experiment [6] was greater than 100 µM each time.

On to `O=C(COC(=O)c1cccc2c(=O)c3ccccc3[nH]c12)Nc1ccc(C(=O)O)cc1`, for which the TGI in [1], in experiment [2], in experiment [3], in experiment [4] and in experiment [6] was greater than 100 µM each time.

`Cc1cc(C)nc(NS(=O)(=O)c2ccc(Nc3c4ccc(Cl)cc4nc4c(C(=O)NCCN(C)C)cccc34)cc2)n1`: the TGI in [1], in experiment [2], in experiment [3], in experiment [4] and in experiment [6] was greater than 100 µM in each case.

Consider `NNC(=O)N/N=C1\C(=O)N(c2ccc(Cl)c(Cl)c2)C(=O)C(=O)C1c1nc2ccccc2s1` (stereo not drawn), for which the TGI in experiment [1], in [2], in experiment [3], in [4], in experiment [5] and in [6] was greater than 100 µM throughout.

Take `CS(=O)(=O)CC(=O)c1ccccc1`: the TGI in [1], in experiment [2], in [7], in [3], in experiment [9] and in [10] was greater than 100 µM throughout. Besides, the TGI in experiment [4], in experiment [5] and in [6] was greater than 100 µM in each case.

With `CC(=O)Nc1ccc(COC(O)CN2CCCCC2)cc1[N+](=O)[O-]` (stereo not drawn), the TGI in [1], in experiment [2], in experiment [7], in experiment [8], in experiment [10] and in [4] was greater than 100 µM throughout. For the same compound, the TGI in [5] and in experiment [6] was greater than 100 µM in each case.

In the case of `O=C(/C(=C\c1ccc(Cl)cc1)c1ccccc1)c1ccccc1`, the TGI in [2] is greater than 100 µM; in experiment [3] it was greater than 100 µM; in experiment [4], greater than 100 µM; in experiment [5] it was 75 µM; in experiment [6], greater than 100 µM.

In the case of `Cn1c(/C=C/[N+](=O)[O-])cc2ccccc21`, the GI50 in experiment [1] was 2.68 µM; in experiment [2], 1.88 µM; in experiment [7] it was 1.65 µM; in experiment [3], 8.39 µM; in experiment [8], 5.49 µM; in experiment [10] it was 6.75 µM. Also, the GI50 in experiment [5] was 15.3 µM; in experiment [6], 3.36 µM. The TGI in experiment [1] is 7.83 µM; in [2], 3.69 µM; in experiment [7] it was 3.21 µM; in [3], 27.6 µM; in experiment [8], 47.9 µM; in experiment [10] it was 35.5 µM. For the same compound, the values for the TGI in [5] and in experiment [6] were 68.3 µM and 28.4 µM, respectively.

For `COC(=O)C(Cc1nc2ccccc2nc1C)/C(=N\NC(N)=O)C(=O)Nc1cccc([N+](=O)[O-])c1` (stereo not drawn), the TGI in experiment [1], in experiment [2], in experiment [3], in experiment [4], in [5] and in experiment [6] was greater than 100 µM in each case.

The record behind these values is PubChem BioAssay (NCI).
